Experimental data from patent US20050239656A1, “Pyridine compounds or salts thereof and herbicides containing the same” (priority 2002, published 2005).

Columns and labels:
crabgrass [1] = assay: Test Example 2: soil surface treatment, upland pot test; format: in vivo, Digitaria sanguinalis L.; conditions: active ingredient 1000 g/ha, observed 20th to 28th day
In short: (§1)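 Pre-emergence: the soil surface was sprayed 1 day after sowing with wettable powder or emulsifiable concentrate diluted in water at 1,500 L/ha, at a predetermined active ingredient amount. Growth control was scored visually 20–28 days after treatment, 0 (untreated) to 100 (complete kill).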

tall morningglory = assay: Test Example 1: foliage treatment, upland pot test; format: in vivo, Ipomoea purpurea L.; conditions: observed 18th to 23rd day, 0 = non-treated, 100 = complete kill
Description: Upland field soil was put into a 1/170,000 ha pot, and seed of various plants were sown. Then, when the plants reached predetermined leaf stages ((1) barnyardgrass: 1.3 to 2.8 leaf stages, (2) crabgrass: 1.0 to 2.8 leaf stages, (3) green foxtail: 1.3 to 2.6 leaf stages, (4) redroot pigweed: 0.1 to 1.2 leaf stages, (5) prickly sida: 0.1 to 1.2 leaf stages, (6) velvetleaf: 0.1 to 1.2 leaf stages, (7) tall morningglory: 0.1 to 1.5 leaf stages, (8) rice: 1.2 to 2.6 leaf stages, (9) wheat: 1.3 to 2.4 leaf stages, (10) corn, 2.1 to 3.2 leaf stages, (11) soybean: 0.1 to 0.4 leaf stage), a wettable powder or emulsifiable concentrate having the compound of the present invention formulated in accordance with a usual formulation method, was weighed so that the active ingredient would be a predetermined amount, and diluted with water in an amount of 500 L/ha. To the diluted solution, 0.1% (v/v) of agricultural spreader was added. The herbicide thus adjusted was applied by a small size sprayer for foliage treatment. On the 18th to 23rd days after the application of the herbicide, the growth of the respective plants was visually observed, and the herbicidal effects were evaluated by the growth controlling degrees (%) ranging from 0 (equivalent to the non-treated plot) to 100 (complete kill), whereby the results shown in Table 3, were obtained.

soybean [2] = assay: Test Example 1: foliage treatment, upland pot test; format: in vivo, Glycine max Merr.; conditions: crop, observed 18th to 23rd day, 0 = non-treated, 100 = complete kill
In short: (§2)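 Each plant species was sprayed once on its foliage, with wheat at 1.3–2.4, soybean at 0.1–0.4, barnyardgrass at 1.3–2.8 and rice at 1.2–2.6 leaves. Visual ratings of growth inhibition, 0 to 100%, followed 18–23 days later.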

rice [3] = assay: Test Example 1: foliage treatment, upland pot test; format: in vivo, Oryza sativa L.; conditions: crop, observed 18th to 23rd day, 0 = non-treated, 100 = complete kill
In short: as §2

prickly sida [4] = assay: Test Example 1: foliage treatment, upland pot test; format: in vivo, Sida spinosa L.; conditions: observed 18th to 23rd day, 0 = non-treated, 100 = complete kill
corn [5] = assay: Test Example 2: soil surface treatment, upland pot test; format: in vivo, Zea mays L.; conditions: active ingredient 1000 g/ha, observed 20th to 28th day
In short: as §1

barnyardgrass [6] = assay: Test Example 3: paddy pot test, application under submerged conditions; format: in vivo, Echinochloa crus-galli L.; conditions: submerged application at 0.5 leaf stage, visually observed 14 days after application, 0 = non-treated, 100 = complete kill
In short: (§3)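 After sowing seeds and planting wapato tubers in flooded paddy soil, an aqueous dilution of the formulated compound was added to the 3–4 cm flood water at early leaf stage. Percent growth control relative to the untreated plot was assessed visually on day 14.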

velvetleaf [7] = assay: Test Example 2: soil surface treatment, upland pot test; format: in vivo, Abutilon theophrasti MEDIC.; conditions: active ingredient 1000 g/ha, observed 20th to 28th day
In short: as §1

wheat [8] = assay: Test Example 1: foliage treatment, upland pot test; format: in vivo, Triticum spp.; conditions: crop, active ingredient 1000 g/ha, observed 18th to 23rd day, 0 = non-treated, 100 = complete kill
In short: as §2

barnyardgrass [9] = assay: Test Example 1: foliage treatment, upland pot test; format: in vivo, Echinochloa crus-galli L.; conditions: observed 18th to 23rd day, 0 = non-treated, 100 = complete kill
In short: as §2

barnyardgrass [10] = assay: Test Example 2: soil surface treatment, upland pot test; format: in vivo, Echinochloa crus-galli L.; conditions: active ingredient 1000 g/ha, observed 20th to 28th day, 0 = non-treated, 100 = complete kill
In short: as §1

japanese bulrush = assay: Test Example 3: paddy pot test, application under submerged conditions; format: in vivo, Scirpus juncoides; conditions: submerged application at 0.5 leaf stage, visually observed 14 days after application, 0 = non-treated, 100 = complete kill
In short: as §3

green foxtail [11] = assay: Test Example 1: foliage treatment, upland pot test; format: in vivo, Setaria viridis L.; conditions: observed 18th to 23rd day, 0 = non-treated, 100 = complete kill
green foxtail [12] = assay: Test Example 2: soil surface treatment, upland pot test; format: in vivo, Setaria viridis L.; conditions: active ingredient 1000 g/ha, observed 20th to 28th day
In short: as §1

japanese ribbon wapato = assay: Test Example 3: paddy pot test, application under submerged conditions; format: in vivo, Sagittaria pygniaea; conditions: submerged application at primary leaf stage, visually observed 14 days after application, 0 = non-treated, 100 = complete kill
In short: as §3

rice (var. Nihonbare) = assay: Test Example 3: paddy pot test, transplanted rice; format: in vivo, Oryza sativa L.; conditions: applied 4th day after transplantation, visually observed 21st day after application, 0 = non-treated, 100 = complete kill
In short: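 Rice (2-leaf stage) was transplanted 3 cm deep into puddled, leveled paddy soil under 3–4 cm flooding. On day 4 after transplanting, diluted wettable powder or emulsifiable concentrate was pipetted onto the water at a predetermined active-ingredient dose. Growth control (0 = untreated, 100 = complete kill) was scored visually 21 days later.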

prickly sida [13] = assay: Test Example 2: soil surface treatment, upland pot test; format: in vivo, Sida spinosa L.; conditions: active ingredient 1000 g/ha, observed 20th to 28th day
In short: as §1

soybean [14] = assay: as above; format: in vivo, Glycine max Merr.; conditions: active ingredient 1000 g/ha, observed 20th to 28th day
In short: as §1

corn [15] = assay: Test Example 1: foliage treatment, upland pot test; format: in vivo, Zea mays L.; conditions: crop, observed 18th to 23rd day, 0 = non-treated, 100 = complete kill
In short: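 In this upland pot foliage test, corn plants at 2.1 to 3.2 leaf stages were sprayed by a small size sprayer. The spray was a conventionally formulated wettable powder or emulsifiable concentrate weighed to a set active ingredient amount, diluted in water at 500 L/ha, plus 0.1% (v/v) agricultural spreader. Visual assessment on days 18 to 23 gave growth controlling degree (%), where 0 equals untreated and 100 means complete kill.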

redroot pigweed [16] = assay: Test Example 2: soil surface treatment, upland pot test; format: in vivo, Amaranthus retroflexus L.; conditions: active ingredient 1000 g/ha, observed 20th to 28th day
In short: as §1

velvetleaf [17] = assay: Test Example 1: foliage treatment, upland pot test; format: in vivo, Abutilon theophrasti MEDIC.; conditions: observed 18th to 23rd day, 0 = non-treated, 100 = complete kill
rice [18] = assay: Test Example 2: soil surface treatment, upland pot test; format: in vivo, Oryza sativa L.; conditions: active ingredient 1000 g/ha, observed 20th to 28th day
In short: as §1

wheat [19] = assay: as above; format: in vivo, Triticum spp.; conditions: active ingredient 1000 g/ha, observed 20th to 28th day
In short: as §1

redroot pigweed [20] = assay: Test Example 1: foliage treatment, upland pot test; format: in vivo, Amaranthus retroflexus L.; conditions: observed 18th to 23rd day, 0 = non-treated, 100 = complete kill
crabgrass [21] = assay: Test Example 1: foliage treatment, upland pot test; format: in vivo, Digitaria sanguinalis L.; conditions: observed 18th to 23rd day, 0 = non-treated, 100 = complete kill

| Compound | Growth controlling degree (%) Crabgrass (crabgrass [1]) [%] | Growth controlling degree (%) Tall morningglory (tall morningglory; active ingredient 1000 g/ha) [%] | Growth controlling degree (%) Soybean (soybean [2]; active ingredient 1000 g/ha) [%] | Growth controlling degree (%) Rice (rice [3]; active ingredient 1000 g/ha) [%] | Growth controlling degree (%) Prickly sida (prickly sida [4]; active ingredient 1000 g/ha) [%] | Growth controlling degree (%) Corn (corn [5]) [%] | Growth controlling degree (%) Velvetleaf (velvetleaf [7]) [%] | Growth controlling degree (%) wheat (wheat [8]) [%] | Growth controlling degree (%) Barnyardgrass (barnyardgrass [9]; active ingredient 1000 g/ha) [%] | Growth controlling degree (%) Barnyardgrass (barnyardgrass [10]) [%] | Growth controlling degree (%) Green foxtail (green foxtail [11]; active ingredient 1000 g/ha) [%] | Growth controlling degree (%) Green foxtail (green foxtail [12]) [%] | Growth controlling degree (%) Prickly sida (prickly sida [13]) [%] | Growth controlling degree (%) Soyabean (soybean [14]) [%] | Growth controlling degree (%) Corn (corn [15]; active ingredient 1000 g/ha) [%] | Growth controlling degree (%) Redroot pigweed (redroot pigweed [16]) [%] | Growth controlling degree (%) Velvetleaf (velvetleaf [17]; active ingredient 1000 g/ha) [%] | Growth controlling degree (%) Rice (rice [18]) [%] | Growth controlling degree (%) wheat (wheat [19]) [%] | Growth controlling degree (%) Redroot pigweed (redroot pigweed [20]; active ingredient 1000 g/ha) [%] | also measured |
| --- | --- | --- | --- | --- | --- | --- | --- | --- | --- | --- | --- | --- | --- | --- | --- | --- | --- | --- | --- | --- | --- |
| CC(C)C(c1cnccc1C(F)(F)F)N(C)C(=O)Cc1ccc(I)cc1 (stereo not shown) [I-2] | 90 | 90 | 90 | 20 | 90 | 0 | 0 | 20 | 90 | 80 | 70 | 80 | 70 | 0 | 20 | 70 | 90 | 0 | 0 | 70 | Growth controlling degree (%) Barnyardgrass (barnyardgrass [6]; active ingredient 250 g/ha): 100%; Growth controlling degree (%) Japanese bulrush (japanese bulrush; active ingredient 250 g/ha): 90%; Growth controlling degree (%) Japanese ribbon wapato (japanese ribbon wapato; active ingredient 250 g/ha): 50%; Growth controlling degree (%) Rice (rice (var. Nihonbare); active ingredient 250 g/ha): 20%; Growth controlling degree (%) Crabgrass (crabgrass [21]; active ingredient 1000 g/ha): 90% |
| CC(C)COC(=O)N(C)C(c1cnccc1C(F)(F)F)c1cccc2ccccc12 (stereo not shown) [I-52] |  | 95 | 0 | 10 | 70 |  |  | 10 | 50 |  | 20 |  |  |  | 60 |  | 95 |  |  | 60 | Growth controlling degree (%) Crabgrass (crabgrass [21]; active ingredient 1000 g/ha): 80% |
| CC(C)C(c1cnccc1C(F)(F)F)N(C)C(=O)Cc1cccc(Br)c1 (stereo not shown) [I-16] | 100 | 80 | 70 | 10 | 80 | 30 | 60 | 40 | 70 | 98 | 70 | 100 | 80 | 0 | 0 | 95 | 80 | 30 | 30 | 80 | Growth controlling degree (%) Barnyardgrass (barnyardgrass [6]; active ingredient 250 g/ha): 100%; Growth controlling degree (%) Japanese bulrush (japanese bulrush; active ingredient 250 g/ha): 90%; Growth controlling degree (%) Japanese ribbon wapato (japanese ribbon wapato; active ingredient 250 g/ha): 30%; Growth controlling degree (%) Rice (rice (var. Nihonbare); active ingredient 250 g/ha): 10%; Growth controlling degree (%) Crabgrass (crabgrass [21]; active ingredient 1000 g/ha): 80% |
| CC(C(=O)N(C)C(c1cnccc1C(F)(F)F)C(C)C)c1ccccc1 (stereo not shown) [I-12] | 100 |  |  |  |  | 0 | 80 |  |  | 100 |  | 100 | 90 | 20 |  | 90 |  | 10 | 40 |  | Growth controlling degree (%) Tall morningglory (tall morningglory; active ingredient 500 g/ha): 70%; Growth controlling degree (%) Soybean (soybean [2]; active ingredient 500 g/ha): 30%; Growth controlling degree (%) Rice (rice [3]; active ingredient 500 g/ha): 0%; Growth controlling degree (%) Prickly sida (prickly sida [4]; active ingredient 500 g/ha): 60%; Growth controlling degree (%) Barnyardgrass (barnyardgrass [6]; active ingredient 500 g/ha): 100%; Growth controlling degree (%) Barnyardgrass (barnyardgrass [9]; active ingredient 500 g/ha): 50%; Growth controlling degree (%) Japanese bulrush (japanese bulrush; active ingredient 500 g/ha): 100%; Growth controlling degree (%) Green foxtail (green foxtail [11]; active ingredient 500 g/ha): 60%; Growth controlling degree (%) Japanese ribbon wapato (japanese ribbon wapato; active ingredient 500 g/ha): 70%; Growth controlling degree (%) Rice (rice (var. Nihonbare); active ingredient 500 g/ha): 30%; Growth controlling degree (%) Corn (corn [15]; active ingredient 500 g/ha): 10%; Growth controlling degree (%) Velvetleaf (velvetleaf [17]; active ingredient 500 g/ha): 80%; Growth controlling degree (%) Redroot pigweed (redroot pigweed [20]; active ingredient 500 g/ha): 50%; Growth controlling degree (%) Crabgrass (crabgrass [21]; active ingredient 500 g/ha): 95% |
